The values below come from patent US20060252800A1, “Anti-leishmania agent” (priority 2003, published 2006).

pIC50: −log10 of the molar value.

One data set has as its system Leishmania (L. major). The data set can be described thus: Leishmania protozoa proliferation inhibition assay. In kind it is cell-based. The conditions noted are these: for OD level (number of viable Leishmania protozoa): Table 2, 48 hours at 27° C., absorbance 450 nm minus 630 nm.

In general, melting point refers to the temperature of the solid-liquid transition.

In the case of `CCCC[n+]1ccccc1/C=c1\s/c(=C2/Sc3ccccc3N2C)c(=O)n1CC.[I-]` [I (c), 1-butyl-2-[3-ethyl-{5-(3-methyl-2(3H)-benzothiazolylidene)-4-oxo-2-thiazolidinylidene}methyl]pyridinium=iodide], the melting point lay in the range of 237 to 242 °C. For the same molecule, the “OD level (number of viable Leishmania protozoa)” value (“OD level” for short) with Leishmania (L. major) (sample concentration 0.0001 mg/ml) was 0.365. Besides, the “OD level” value in the data set on Leishmania (L. major) (sample concentration 0.0007 mg/ml) worked out at 0.360. Besides, the “OD level” value in the data set on Leishmania (L. major) (sample concentration 0.002 mg/ml) is 0.394. Besides, the “OD level” value with Leishmania (L. major) (sample concentration 0.008 mg/ml) was found to be 0.407. Further, in the data set on Leishmania (L. major) (sample concentration 0.025 mg/ml), the “OD level” value amounted to 0.317. Also, in the data set on Leishmania (L. major) (sample concentration 0.084 mg/ml), the “OD level” value worked out at 0.117. In addition, the “OD level” value in the data set on Leishmania (L. major) (sample concentration 0.279 mg/ml) worked out at 0.042. The “OD level” value in the data set with Leishmania (L. major) (sample concentration 0.93 mg/ml) is listed as 0.029. In the data set on Leishmania (L. major) (sample concentration 3.1 mg/ml), the “OD level” value worked out at 0.031. Further, the “OD level” value in the data set on Leishmania (L. major) (sample concentration 2E−04 mg/ml) is listed as 0.350. The pIC50 in the data set with Leishmania (L. major) (calculated from the graphs of FIGS. 1 to 4 (concentration vs number of viable leishmania protozoa), read-out: Concentration inhibiting 50% leishmania proliferation) was 6.00.
